Measurements taken from patent US20230265151A1, “GIP/GLP1 CO-AGONIST COMPOUNDS” (priority 2020, published 2023).
Read-outs that look alike come from different tables or passages of the source. *1 amine or outer side, *2 acyl side, *3 side chain or, on linkers, in order; H or OH if unused. Where a SMILES comes first, the peptide text is derived from it. Side-chain parts run from the residue outwards. [ ]: non-standard residue; d: D form. The star is where a group is joined. αMePhe(2-F) = C[C@](N)(Cc1ccccc1F)C(=O)O; γGlu = O=C(O)[C@H](CCC(=O)[*:2])N[*:1]; C14 diacid = O=C(O)CCCCCCCCCCCCC(=O)*; αMeY = C[C@](N)(Cc1ccc(O)cc1)C(=O)O; 4Pal = N[C@@H](Cc1ccncc1)C(=O)O; αMeL = CC(C)C[C@](C)(N)C(=O)O; Orn = NCCC[C@H](N)C(=O)O; AEEA = NCCOCCOCC(=O)O; Aib = CC(C)(N)C(=O)O

How the values were obtained:
hGCGR = target: T1, hGCGR (Homo sapiens, UniProt P47871); assay: Functional cAMP formation (HTRF) in HEK-293 clonal cells expressing hGCGR, 0.1% bovine casein, without or with 1.0% human serum albumin; assay type: cell-based; conditions: read-out: hGCGR EC50, nM (SEM, n)
T1 construct: expressed in transfected cells
T1 sequence (P47871 26-477): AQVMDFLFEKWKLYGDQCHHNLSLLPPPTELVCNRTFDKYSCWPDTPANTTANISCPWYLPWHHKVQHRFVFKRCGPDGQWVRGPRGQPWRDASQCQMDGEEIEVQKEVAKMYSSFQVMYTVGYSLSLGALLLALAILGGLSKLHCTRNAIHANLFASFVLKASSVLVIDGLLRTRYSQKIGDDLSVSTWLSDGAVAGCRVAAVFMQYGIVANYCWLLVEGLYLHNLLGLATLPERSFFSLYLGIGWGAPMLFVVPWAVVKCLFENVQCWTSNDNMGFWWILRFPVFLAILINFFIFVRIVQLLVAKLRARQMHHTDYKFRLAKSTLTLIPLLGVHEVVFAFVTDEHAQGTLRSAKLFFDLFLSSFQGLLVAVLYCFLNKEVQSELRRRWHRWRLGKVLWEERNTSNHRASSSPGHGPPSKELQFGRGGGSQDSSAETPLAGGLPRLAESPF
In short: (§1)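 Cells were stimulated with peptide for 30 min at 37° C, then intracellular cAMP was measured by competitive HTRF (665/620 nm ratio) and converted to nM using a cAMP standard curve. Relative EC50 and Emax came from four-parameter logistic fits of percent maximal response against peptide concentration.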

[1] = target: T2, human GLP-1 receptor (hGLP-1R) (Homo sapiens, UniProt P43220); assay: [125I]-GLP-1 binding, SPA with membranes of HEK293 cells expressing hGLP-1R; conditions: human GLP-1R; geometric mean (SEM, n); read-out: Binding Affinity Ki, nM (SEM, n) hGLP-1R
T2 construct: expressed in transfected cells; crude membranes
T2 sequence (P43220 24-463): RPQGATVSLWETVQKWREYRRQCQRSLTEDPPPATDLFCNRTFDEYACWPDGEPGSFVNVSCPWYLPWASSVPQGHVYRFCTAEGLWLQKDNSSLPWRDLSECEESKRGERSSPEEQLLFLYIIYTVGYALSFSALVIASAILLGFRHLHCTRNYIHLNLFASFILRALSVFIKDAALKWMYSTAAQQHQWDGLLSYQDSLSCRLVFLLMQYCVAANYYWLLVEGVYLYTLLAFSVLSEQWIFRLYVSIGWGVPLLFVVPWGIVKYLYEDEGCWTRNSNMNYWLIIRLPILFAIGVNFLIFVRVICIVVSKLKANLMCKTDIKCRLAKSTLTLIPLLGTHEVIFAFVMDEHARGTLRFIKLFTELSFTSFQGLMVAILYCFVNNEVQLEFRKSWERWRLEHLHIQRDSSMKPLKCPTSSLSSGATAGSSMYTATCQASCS

hGIPR = target: T3, hGIPR (Homo sapiens, UniProt P48546); assay: Functional cAMP formation (HTRF) in HEK-293 clonal cells expressing hGIPR, 0.1% bovine casein, without or with 1.0% human serum albumin; assay type: cell-based; conditions: for EC50: read-out: hGIPR EC50, nM (SEM, n); for Emax: read-out: hGIPR Emax, % ± SEM
T3 construct: expressed in transfected cells
T3 sequence (P48546 22-466): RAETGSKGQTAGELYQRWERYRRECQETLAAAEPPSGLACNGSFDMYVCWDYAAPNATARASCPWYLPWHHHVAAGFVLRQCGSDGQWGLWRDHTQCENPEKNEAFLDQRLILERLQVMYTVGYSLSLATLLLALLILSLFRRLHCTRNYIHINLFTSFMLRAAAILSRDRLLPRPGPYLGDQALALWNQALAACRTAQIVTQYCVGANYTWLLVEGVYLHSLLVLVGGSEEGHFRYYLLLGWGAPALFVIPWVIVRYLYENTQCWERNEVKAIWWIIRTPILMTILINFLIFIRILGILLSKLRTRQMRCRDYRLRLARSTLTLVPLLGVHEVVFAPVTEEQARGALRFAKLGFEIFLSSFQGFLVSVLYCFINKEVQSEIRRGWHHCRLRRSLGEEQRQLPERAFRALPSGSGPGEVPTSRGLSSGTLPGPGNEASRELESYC
In short: as §1

hGLP-1R = hGLP-1R (Homo sapiens, UniProt P43220); assay: Functional cAMP formation (HTRF) in HEK-293 clonal cells expressing hGLP-1R, 0.1% bovine casein, without or with 1.0% human serum albumin; assay type: cell-based; design: expressed in transfected cells; conditions: 37° C.; for EC50: read-out: hGLP-1R EC50, nM (SEM, n); for Emax: read-out: hGLP-1R Emax, % ± SEM
Sequence of hGLP-1R (P43220 24-463): as the sequence (P43220 24-463) above
In short: as §1

[2] = target: T4, human Gcg receptor (hGcgR) (Homo sapiens, UniProt P47871); assay: [125I]-Glucagon binding, SPA with membranes of HEK293 cells expressing hGcgR; conditions: human GcgR; geometric mean (SEM, n); read-out: Binding Affinity Ki, nM (SEM, n) hGCGR
T4 construct: expressed in transfected cells; crude membranes
T4 sequence (P47871 26-477): as the sequence (P47871 26-477) above

[3] = 0.1% bovine casein and 1.0% human serum albumin, 37° C., geometric mean
[4] = cAMP, incubated at 37° C., 0.1% bovine casein (no human serum albumin), geometric mean
[5] = cAMP, 37° C., 0.1% bovine casein (no human serum albumin), geometric mean
[6] = cAMP, 37° C., 0.1% bovine casein and 1.0% human serum albumin, geometric mean (SEM, n)
[7] = HEK293, cAMP, 37° C., 0.1% bovine casein and 1.0% human serum albumin, percent of maximal response to GIP(1-42)NH2
[8] = HEK293, cAMP, 0.1% bovine casein and 1.0% human serum albumin, percent of maximal response to GLP-1(7-36)NH2
[9] = cAMP, 0.1% bovine casein (no human serum albumin), geometric mean
[10] = HEK293, cAMP, 0.1% bovine casein, percent of maximal response to GLP-1(7-36)NH2, arithmetic mean
[11] = cAMP, 0.1% bovine casein and 1.0% human serum albumin, geometric mean (SEM, n)

Row | SMILES | EC50 (hGCGR; [3]) [nM] | EC50 (hGCGR; [4]) [nM] | Ki [1] [nM] | EC50 (hGIPR; [3]) [nM] | Emax (hGIPR; HEK293, 0.1% bovine casein and 1.0% human serum albumin, 37° C., percent of maximal response to GIP(1-42)NH2) [%] | Emax (hGIPR; HEK293, percent of maximal response to GIP(1-42)NH2, 37° C., 0.1% bovine casein, arithmetic mean) [%] | EC50 (hGIPR; [4]) [nM] | EC50 (hGLP-1R; 0.1% bovine casein and 1.0% human serum albumin, geometric mean) [nM] | Emax (hGLP-1R; HEK293, 0.1% bovine casein and 1.0% human serum albumin, percent of maximal response to GLP-1(7-36)NH2) [%] | Emax (hGLP-1R; HEK293, percent of maximal response to GLP-1(7-36)NH2, 0.1% bovine casein, arithmetic mean) [%] | Ki [2] [nM] | EC50 (hGCGR; [5]) [nM] | EC50 (hGCGR; [6]) [nM] | Emax (hGIPR; [7]) [%] | EC50 (hGIPR; [5]) [nM] | EC50 (hGIPR; [6]) [nM] | Emax (hGLP-1R; [8]) [%] | EC50 (hGLP-1R; [9]) [nM] | Emax (hGLP-1R; [10]) [%] | EC50 (hGLP-1R; [11]) [nM]
1 | CC[C@H](C)[C@H](NC(=O)[C@H](CC(C)C)NC(=O)[C@](C)(Cc1ccc(O)cc1)NC(=O)[C@@H](CCC(=O)O)NC(=O)[C@@H](NC(=O)[C@H](Cc1ccccc1)NC(=O)[C@H](CCC(=O)O)NC(=O)C(C)(C)NC(=O)[C@H](CCC(N)=O)NC(=O)[C@H](C)NC(=O)[C@H](CCCCNC(=O)COCCOCCNC(=O)COCCOCCNC(=O)CC[C@H](NC(=O)CCCCCCCCCCCCC(=O)O)C(=O)O)NC(=O)[C@H](CCCN)NC(=O)[C@H](CC(=O)O)NC(=O)[C@H](CC(C)C)NC(=O)[C@](C)(CC(C)C)NC(=O)[C@@H](NC(=O)[C@H](CO)NC(=O)[C@H](Cc1ccncc1)NC(=O)[C@H](CC(=O)O)NC(=O)[C@H](CO)NC(=O)[C@@H](NC(=O)[C@](C)(Cc1ccccc1F)NC(=O)[C@@H](NC(=O)CNC(=O)[C@H](CCC(=O)O)NC(=O)C(C)(C)NC(=O)[C@@H](N)Cc1ccc(O)cc1)[C@@H](C)O)[C@@H](C)O)[C@@H](C)CC)[C@@H](C)CC)C(=O)N[C@@H](CCC(=O)O)C(=O)NCC(=O)NCC(=O)N[C@@H](CCCCNC(=O)COCCOCCNC(=O)COCCOCCNC(=O)CC[C@H](NC(=O)CCCCCCCCCCCCC(=O)O)C(=O)O)C(=O)N[C@@H](CO)C(=O)N[C@@H](CO)C(=O)NCC(=O)N[C@@H](C)C(=O)N1CCC[C@H]1C(=O)N1CCC[C@H]1C(=O)N1CCC[C@H]1C(=O)N[C@@H](CO)C(N)=O [Example 1] | > 9950 | > 9950 | 2.33 | 0.696 | 87.5 ± 3.24 | 90.2 ± 2.82 | 0.0145 | 30.7 | 94.3 ± 4.39 | 97 ± 4.47 | > 969 |  |  |  |  |  |  |  |  | 
2 | CC[C@H](C)[C@H](NC(=O)[C@H](CC(C)C)NC(=O)[C@](C)(Cc1ccc(O)cc1)NC(=O)[C@@H](CCC(=O)O)NC(=O)[C@@H](NC(=O)[C@H](Cc1ccccc1)NC(=O)[C@H](CCC(=O)O)NC(=O)C(C)(C)NC(=O)[C@H](CCC(N)=O)NC(=O)[C@H](C)NC(=O)[C@H](CCCCNC(=O)COCCOCCNC(=O)CC[C@H](NC(=O)CCCCCCCCCCCCC(=O)O)C(=O)O)NC(=O)[C@H](CCCN)NC(=O)[C@H](CC(=O)O)NC(=O)[C@H](CC(C)C)NC(=O)[C@](C)(CC(C)C)NC(=O)[C@@H](NC(=O)C(C)(C)NC(=O)[C@H](Cc1ccncc1)NC(=O)[C@H](CC(=O)O)NC(=O)[C@H](CO)NC(=O)[C@@H](NC(=O)[C@](C)(Cc1ccccc1F)NC(=O)[C@@H](NC(=O)CNC(=O)[C@H](CCC(=O)O)NC(=O)C(C)(C)NC(=O)[C@@H](N)Cc1ccc(O)cc1)[C@@H](C)O)[C@@H](C)O)[C@@H](C)CC)[C@@H](C)CC)C(=O)N[C@@H](CCCCNC(=O)COCCOCCNC(=O)CC[C@H](NC(=O)CCCCCCCCCCCCC(=O)O)C(=O)O)C(=O)NCC(=O)NCC(=O)N1CCC[C@H]1C(=O)N[C@@H](CO)C(=O)N[C@@H](CO)C(=O)NCC(=O)N[C@@H](C)C(=O)N1CCC[C@H]1C(=O)N1CCC[C@H]1C(=O)N1CCC[C@H]1C(=O)N[C@@H](CO)C(N)=O [Example 337] |  |  |  |  |  |  |  |  |  |  | > 957 | > 10100 | > 10100 | 86.8 | 0.0151 | 2.65 | 100 | 0.444 |  | 
3 | CC[C@H](C)[C@H](NC(=O)[C@H](CC(C)C)NC(=O)[C@](C)(Cc1ccc(O)cc1)NC(=O)[C@@H](CCC(=O)O)NC(=O)[C@@H](NC(=O)[C@H](Cc1ccccc1)NC(=O)[C@H](CCC(=O)O)NC(=O)C(C)(C)NC(=O)[C@H](CCC(N)=O)NC(=O)[C@H](C)NC(=O)[C@H](CCCCNC(=O)COCCOCCNC(=O)CC[C@H](NC(=O)CCCCCCCCCCCCC(=O)O)C(=O)O)NC(=O)[C@H](CCCN)NC(=O)[C@H](CC(=O)O)NC(=O)[C@H](CC(C)C)NC(=O)[C@](C)(CC(C)C)NC(=O)[C@@H](NC(=O)C(C)(C)NC(=O)[C@H](Cc1ccncc1)NC(=O)[C@H](CC(=O)O)NC(=O)[C@H](CO)NC(=O)[C@@H](NC(=O)[C@](C)(Cc1ccccc1F)NC(=O)[C@@H](NC(=O)CNC(=O)[C@H](CCC(=O)O)NC(=O)C(C)(C)NC(=O)[C@@H](N)Cc1ccc(O)cc1)[C@@H](C)O)[C@@H](C)O)[C@@H](C)CC)[C@@H](C)CC)C(=O)N[C@@H](CCC(=O)O)C(=O)NCC(=O)NCC(=O)N1CCC[C@H]1C(=O)N[C@@H](CO)C(=O)N[C@@H](CO)C(=O)NCC(=O)N[C@@H](C)C(=O)N1CCC[C@H]1C(=O)N1CCC[C@H]1C(=O)N1CCC[C@H]1C(=O)N[C@@H](CO)C(=O)N[C@@H](CCCCNC(=O)COCCOCCNC(=O)CC[C@H](NC(=O)CCCCCCCCCCCCC(=O)O)C(=O)O)C(N)=O [Example 338] |  |  |  |  |  |  |  |  |  |  | > 957 | > 10100 | > 10100 | 83.9 | 0.0157 | 1.24 |  | 0.468 | 109 | 36.6
4 | CC[C@H](C)[C@H](NC(=O)[C@H](CC(C)C)NC(=O)[C@](C)(Cc1ccc(O)cc1)NC(=O)[C@@H](CCC(=O)O)NC(=O)[C@@H](NC(=O)[C@H](Cc1ccccc1)NC(=O)[C@H](CCCCNC(=O)COCCOCCNC(=O)COCCOCCNC(=O)CC[C@H](NC(=O)CCCCCCCCCCCCC(=O)O)C(=O)O)NC(=O)C(C)(C)NC(=O)[C@H](CCC(N)=O)NC(=O)[C@H](C)NC(=O)[C@H](CCC(N)=O)NC(=O)[C@H](CCCN)NC(=O)[C@H](CC(=O)O)NC(=O)[C@H](CC(C)C)NC(=O)[C@](C)(CC(C)C)NC(=O)[C@@H](NC(=O)C(C)(C)NC(=O)[C@H](Cc1ccncc1)NC(=O)[C@H](CC(=O)O)NC(=O)[C@H](CO)NC(=O)[C@@H](NC(=O)[C@](C)(Cc1ccccc1F)NC(=O)[C@@H](NC(=O)CNC(=O)[C@H](CCC(=O)O)NC(=O)C(C)(C)NC(=O)[C@@H](N)Cc1ccc(O)cc1)[C@@H](C)O)[C@@H](C)O)[C@@H](C)CC)[C@@H](C)CC)C(=O)N[C@@H](CCC(=O)O)C(=O)NCC(=O)NCC(=O)N1CCC[C@H]1C(=O)N[C@@H](CO)C(=O)N[C@@H](CO)C(=O)NCC(=O)N[C@@H](C)C(=O)N1CCC[C@H]1C(=O)N1CCC[C@H]1C(=O)N1CCC[C@H]1C(=O)N[C@@H](CO)C(=O)N[C@@H](CCCCNC(=O)COCCOCCNC(=O)COCCOCCNC(=O)CC[C@H](NC(=O)CCCCCCCCCCCCC(=O)O)C(=O)O)C(N)=O [Example 489] (H-Y[Aib]EGT[αMePhe(2-F)]TSD[4Pal][Aib]I[αMeL]LD[Orn]QAQ[Aib]K([AEEA-AEEA-γGlu-C14 diacid])FI[dE][αMeY]LIEGGPSSGAPPPSK([AEEA-AEEA-γGlu-C14 diacid])-NH2) |  |  |  |  |  |  |  |  |  |  | > 957 | > 10100 | > 9950 | 79.4 | 0.0131 |  | 98.7 | 0.257 | 112 | 13.5
